Here are results for 85 compounds from PubChem BioAssay AID504322 (Emory University Molecular Libraries Screening Center, 2011).

pIC50: −log10 of the molar value. Active and inactive are the calls of the source. How the calls were made is not given here.

This assay deals with CHOP reporter cell assay, percent of control. The assay is described as follows: CHOP reporter inhibitor potency, dose response, cell-based (AID 504322).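 Further: CHO cells carrying a CHOP reporter stimulated with tunicamycin to induce ER stress; potency is for inhibition of the stress-induced reporter signal.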
In the case of `CN(C(=O)CCl)C1CCCc2ccccc21` (stereo not given), the IC50 is > 10 µM (inactive). Regarding `Cc1ccccc1N1CCN(C(=O)c2ccc(Oc3ccc(C(F)(F)F)cn3)cc2)CC1`, the IC50 was 3.48 µM (inactive).

`COc1ccc(CC(=O)Nc2cccc(-c3nnc(-c4cccc(C)c4)o3)c2)cc1OC`: the IC50 was 5.17 µM (inactive).

Consider `C=C(C)C(=O)OC1(C(F)(F)F)Oc2cc(C)ccc2NC1=O` (stereo not given), for which the IC50 was 5.82 µM (inactive). As for `O=[N+]([O-])c1ccc(-c2nn(-c3ccccc3)cc2/C=N/n2c(-c3cccs3)n[nH]c2=S)cc1`, the IC50 was > 10 µM (inactive). For `CC(C)Cn1c2c(c(=O)[nH]c1=O)C(C(F)(F)F)(C(F)(F)F)N=C(CCC1CCCCC1)N2`, the pIC50 is 5.63.

Turning to `O=C(Nc1ccc([N+](=O)[O-])cc1)Nc1ccc(OC(F)F)c(Cl)c1`, the IC50 was 6.4 µM (inactive). The same measure, in the same setting: the value for `CN1CC(c2ccccc2)C2(SC(=S)N(Cc3ccco3)C2=O)C12C(=O)Nc1ccccc12` (stereo not given) was > 10 µM (inactive); that for `Cc1ccc(NC(=O)CCl)cc1S(=O)(=O)N1CCCCCC1` was > 10 µM (inactive). For `CCCCC(CC)Cn1c(N)c(C#N)c2nc3ccccc3nc21` (stereo not given), the negative-log IC50 (pIC50) is 5.40.

Regarding `CCOC(=O)c1c(/N=C/c2c(O)n(-c3cccc(C)c3)c(=O)[nH]c2=O)sc2c1CCCC2`, the pIC50 was 5.62. For the compound `O=C(NCc1nc(-c2ccc(C(F)(F)F)cc2)no1)Nc1cc(Cl)cc(Cl)c1`, the pIC50 is 5.32. For the compound `FC(F)C(F)(F)C(F)(F)C(F)(F)c1cc(-c2ccccc2)n[nH]1`, the IC50 is 9.67 µM (inactive).

Consider `CC(C)(C)C(=O)c1no[n+]([O-])c1/C(=N/O)C(C)(C)C`, for which the IC50 was 7.23 µM (inactive).

Consider `Nc1cc(Cl)ccc1Oc1ccc(Cl)cc1`, for which the IC50 was 4.67 µM (inactive).

In the case of `CCN1CCN(Cc2ccc(NC(=O)c3ccc(C)c(NC(=O)c4c[nH]c5cc(C(F)(F)F)ccc5c4=O)c3)cc2C(F)(F)F)CC1`, the negative logarithm of the IC50 (pIC50) is 5.32. Turning to `COc1cc(C)nc(N2CCCC(C(=O)Nc3cccc(Cl)c3C)C2)n1` (stereo not given), the IC50 is 6.3 µM (inactive). Take `Cc1nc(Nc2nc(CSc3nc4ccccc4[nH]3)cc(=O)[nH]2)nc2ccccc12`: the IC50 was 5.68 µM (inactive). Still for that read-out and setting: the value for `Nc1c(C(=O)Nc2nc3ccccc3s2)sc2nc(-c3cccs3)ccc12` was 7.44 µM (inactive); that for `Cc1ccc(NC(=O)C(=O)NCC2OCCc3ccccc32)cc1` (stereo not given) was 8.99 µM (inactive). For `CCCCCc1ccc(OCCOCCn2c[n+](C)c3ccccc32)c(CCCCC)c1`, the pIC50 is 5.45. Regarding `O=[N+]([O-])c1cc(S(=O)(=O)C(F)(F)F)ccc1Sc1nc2ccccc2[nH]1`, the IC50 is 9.3 µM (inactive). For `O=[N+]([O-])c1ccc(/C=N/N=C/c2ccc([N+](=O)[O-])o2)o1`, the negative-log IC50 (pIC50) was 5.75.

As for `COc1ccc(C(=O)/C=C/C(=O)N(CC(=O)NC2CCCCC2)Cc2ccc(F)cc2)c(O)c1`, the negative-log IC50 (pIC50) is 5.67.

As for `OC(CNCC(c1ccc(Cl)cc1Cl)c1c[nH]c2ccccc12)c1ccccc1` (stereo not given), the pIC50 is 5.75. The same measure, in the same setting: the value for `CC(/C=C1\SC(=O)N(CCCC(=O)O)C1=O)=C\c1ccccc1` was greater than 6.80.

As to `Cc1ccccc1OCc1n(CC(=O)OC2CC(C)CCC2C(C)C)c2ccccc2[n+]1C` (stereo not given), the IC50 is > 10 µM (inactive).

Take `Cc1ccc(/C=C2\SC(=S)N(CCCC(=O)Nc3ccc(O)cc3)C2=O)cc1`: the negative logarithm of the IC50 (pIC50) is 6.77. For `COc1ccc(-c2[nH]ncc2/C=C(/C#N)C(=O)NC2CCCCCC2)cc1`, the IC50 was 9.23 µM (inactive).

On to `CCOC(=O)c1ccc(NC(=O)c2nc[nH]c2C(=O)N[C@@H](C)C(=O)OC(C)(C)C)cc1`, for which the IC50 was 5.92 µM (inactive).

Turning to `CCOC(=O)CCS(=O)(=O)c1nc(-c2ccccc2)cc(C(F)(F)F)n1`, the pIC50 is greater than 6.80.

For `Nc1ccc(N2CCCCCC2)cc1`, the IC50 is > 10 µM (inactive). The same measure, in the same setting: the value for `CS(=O)(=O)c1ncc(Cl)c(C(=O)Nc2ccc(N3CCOCC3)cc2)n1` was > 10 µM (inactive); that for `Cc1ccc(/C=N/N2C(=S)SC(C)(C)C2N(O)C(=O)Nc2ccc([N+](=O)[O-])cc2)cc1` (stereo not given) was 2.67 µM (inactive). Still for that read-out and setting: to `Cc1cccc(C)c1NC(=O)COc1ccccc1C(=O)Nc1ccc(Br)cn1` belongs > 10 µM (inactive). In the case of `Cc1cc(Cl)n2c(nc3ccccc32)c1C#N`, the IC50 was > 10 µM (inactive).

On to `CN1C(=O)/C(=C/c2cc(N=Nc3ccccc3)ccc2O)SC1=S`, for which the IC50 was 4.49 µM (inactive).

On to `CCCOc1ccc(Cc2c(Cl)nc(SC)nc2NC)cc1`, for which the IC50 was 8.18 µM (inactive). Still for that read-out and setting: to `CCCCCCn1c(N2CCC(C)CC2)nc2c1c(=O)[nH]c(=O)n2C` belongs 5.4 µM (inactive); to `CCCc1cc(C(=O)Cc2ccc(F)cc2)c(O)cc1O`, 5.98 µM (inactive); to `Cc1cccc(NC(=S)NC(NC(=O)OCc2ccccc2)C(Cl)(Cl)Cl)c1` (stereo not given), 9.44 µM (inactive). Consider `O=C(CCCOc1ccc(Cl)cc1Cl)N/N=C\C1CCCCC1`, for which the IC50 was 5.03 µM (inactive). Turning to `O=C1C(Nc2ccccc2)=C/C(=N/S(=O)(=O)c2cccs2)c2ccccc21`, the negative-log IC50 (pIC50) was 5.59.

Consider `CC1CCC(C(C)C)C(OCC(O)CN2CCN(Cc3ccccc3)CC2)C1` (stereo not given), for which the IC50 is 7 µM (inactive). The same measure, in the same setting: to `Cc1cccnc1NC(=O)c1c(O)c2ccccc2n(C)c1=O` belongs > 10 µM (inactive); to `C/C=C/Cn1c(SCCCc2ccccc2)nc2c1c(=O)[nH]c(=O)n2C`, > 10 µM (inactive). With `COc1ccc(OCc2cccc(C(=O)Nn3cc([N+](=O)[O-])cn3)c2)cc1`, the pIC50 is 6.07.

On to `O=c1c(Cl)c(Cl)cnn1Cc1nnc(-c2ccccc2Br)o1`, for which the pIC50 was 5.42. `CCC(C)[C@@H](NC(=O)OC(C)(C)C)c1nnc(S(=O)(=O)Cc2cccc(C)c2)o1` (stereo not given in full): the negative logarithm of the IC50 (pIC50) was 5.32. For the compound `CC[n+]1c(/C=C2\Sc3ccccc3N2C)ccc2cccc(C)c21`, the IC50 was > 10 µM (inactive). On the same count and under the same terms, the value for `COC(=O)c1ccc2c(=O)n(CCCCCC(=O)N3CCN(c4ccccc4)CC3)c(=O)[nH]c2c1` was 9.65 µM (inactive); that for `COc1ccc(C(=O)Nc2nnc(-c3ccco3)s2)cc1` was 8.58 µM (inactive); that for `O=C(CSc1ncnc2[nH]ncc12)Nc1nc(-c2ccc(F)c(F)c2)cs1` was 6.98 µM (inactive).

Take `COc1ccc(CC2(CO)CCN(CC3=Cc4cc(Cl)ccc4OC3)CC2)cc1`: the IC50 is 0.87 µM (inactive). Consider `CN=C1SC(CC(=O)Nc2ccc(F)cc2F)C(=O)N1/N=C/c1ccc(OC(F)F)c(OC)c1` (stereo not given), for which the IC50 was 9.78 µM (inactive). Take `Cc1ccc(-c2nc3cc(NS(=O)(=O)c4ccc(C)cc4)ccc3o2)cc1`: the IC50 is 5.63 µM (inactive). The same measure, in the same setting: to `O=C1C(=C2SCCCS2)CC/C1=C\c1ccc(F)cc1` belongs 4.38 µM (inactive); to `S=C(NCCc1ccc(Cl)cc1)Nc1ccc(Cl)cc1Cl`, 9.93 µM (inactive); to `O=C(Nc1cc(N2CCOCC2)ncn1)NC1(C(F)(F)F)Oc2ccc(Cl)cc2O1` (stereo not given), > 10 µM (inactive).

On to `Cc1ccc(S(=O)(=O)Nc2ccc(NC(=O)Nc3cccc(C(F)(F)F)c3)cc2)cc1`, for which the IC50 is 9.48 µM (inactive).

As for `Oc1ccc(N=Nc2cccc(C(F)(F)F)c2)cc1C=Nc1ccc(N2CCOCC2)cc1`, the IC50 was 6.97 µM (inactive). On to `COCCn1cnc2c(c1=O)c1nc3ccccc3nc1n2/N=C/c1cccc(OC)c1`, for which the IC50 is 8.74 µM (inactive). `CCc1ccc(-c2cc(C(=O)N3N=C(C(F)F)CC3(O)C(F)F)c3ccccc3n2)cc1` (stereo not given): the IC50 is 5.26 µM (inactive). As for `C=C1C(=O)C=C2CN(C(=O)c3ccccc3)[C@@](Cc3ccc(F)cc3)(C(=O)OC)[C@@H]12`, the pIC50 was 5.94. Take `Cc1ccc(C(=O)Nc2cnc3ccccc3c2)cc1`: the IC50 is 8.6 µM (inactive). In the case of `O=C(NC1CCCCC1)C(c1ccc(F)cc1)N(Cc1ccccc1)C(=O)CN1C(=O)c2ccccc2S1(=O)=O` (stereo not given), the pIC50 is 5.31. `CCc1cc(-c2n[nH]c(C)c2Oc2ccc(C(C)C)cc2)c(O)cc1O`: the IC50 is 7.24 µM (inactive). Consider `CC1=NN(c2nc(-c3ccc(C)cc3)cs2)C(=O)C1N=Nc1ccccc1O` (stereo not given), for which the IC50 is 6.66 µM (inactive). Consider `COc1ccc(OCc2n(CC(=O)OC3CC(C)CCC3C(C)C)c3ccccc3[n+]2C)cc1` (stereo not given), for which the IC50 is > 10 µM (inactive). Take `Cc1ccc(N=Cc2cc3c(cc2O)OC(N)=C(C#N)C3c2ccccc2)cc1` (stereo not given): the IC50 is > 10 µM (inactive). Same read-out and setting: the value for `CCn1c(=O)c(C(=O)Nc2nc3ccccc3[nH]2)c(O)c2ccccc21` was 5.84 µM (inactive); that for `C=C(C)COc1ccc(-c2n[nH]c(C)c2-c2ccccc2OC)c(O)c1` was > 10 µM (inactive); that for `CCCC(=O)OCCNc1cc(Sc2nc3ccccc3[nH]2)c2nonc2c1[N+](=O)[O-]` was 5.35 µM (inactive).

`CC(=O)C1=C(c2ccc(Br)cc2)C(=O)c2ccccc2C1=O`: the IC50 was 5.57 µM (inactive). Regarding `CCCCCCCCCCCCCCCC[n+]1ccc(/C=N/O)cc1`, the negative logarithm of the IC50 (pIC50) is 5.51. On the same count and under the same terms, the value for `COc1ccc(CCNC(=O)c2nnn(-c3ccc4c(c3)OCCO4)c2N)cc1OC` was 6.16. For the compound `CC[C@@H](C)[C@H](NC(=O)OC(C)(C)C)c1nnc(S(=O)(=O)Cc2cc(C)ccc2C)o1`, the IC50 was > 10 µM (inactive). `CCCCCC1CC(CC(=O)Nc2ccc([N+](=O)[O-])cc2)C(=O)O1` (stereo not given): the IC50 is 9.17 µM (inactive). On to `O=C(Nc1cccc(-c2nc3ncccc3o2)c1)c1sc2ccccc2c1Cl`, for which the pIC50 is 5.61. As to `O=C(COc1ccc(Cl)cc1Cl)Nc1ccccn1`, the pIC50 was 5.61. For the compound `Cc1ccc(NC(=O)c2nc[nH]c2C(=O)N[C@@H](C)C(=O)OC(C)(C)C)cc1`, the IC50 is 5.12 µM (inactive). `Cn1cnc([N+](=O)[O-])c1S(=O)(=O)c1ccc(Cl)cc1`: the IC50 was 7.04 µM (inactive). On to `COc1ccc(C(=O)NC(=O)Nc2cc(C)ccn2)cc1`, for which the IC50 is 9.99 µM (inactive). Same read-out and setting: the value for `Cc1cc(Nc2cccc([N+](=O)[O-])c2)n2c(nc3ccccc32)c1C#N` was 4.08 µM (inactive); that for `CC1CCc2cc(F)ccc2N1C(=O)CSc1nnc2c(n1)[nH]c1ccc(F)cc12` (stereo not given) was 9.19 µM (inactive).

One may read the IC50 as the midpoint of a concentration-inhibition curve. As usually defined, the pIC50 is the IC50 on a negative log10 scale, so that one unit is a factor of ten.
